Data taken from patent US20230167088A1, “1-PYRAZINYLPYRAZOLYL-3-OXYALKYL ACIDS AND THEIR DERIVATIVES, AND THEIR USE FOR CONTROL OF UNDESIRED PLANT GROWTH” (BAYER AKTIENGESELLSCHAFT, priority 2020, published 2023).

Columns and labels:
ALOMY [1] = experiment: Herbicidal post-emergence action 1a (greenhouse pots, visual rating); type: in vivo, Alopecurus myosuroides; details: Dosage 320 g/ha; rated visually about 3 weeks after treatment; 100% = plants have died, 0% = like control plants
Protocol: (§1) [table] a) Seeds of monocotyledonous and dicotyledonous weeds and crop plants are placed in sandy loam in plastic or organic plant pots, covered with soil and cultivated in a greenhouse under controlled growth conditions. 2 to 3 weeks after sowing, the test plants are treated at the one-leaf stage. The compounds of the invention, formulated in the form of wettable powders (WP) or as emulsion concentrates (EC), are then sprayed onto the green parts of the plants as aqueous suspension or emulsion with addition of 0.5% additive at a water application rate of 600 1/ha (converted). After the test plants have been kept in the greenhouse under optimum growth conditions for about 3 weeks, the activity of the preparations is rated visually in comparison to untreated controls. For example, 100% activity=the plants have died, 0% activity=like control plants. Tables A1 to A15 below show the effects of selected compounds of the general formula (I) according to Tables 1 and 2 on various harmful plants and an application rate corresponding to 320 g/ha and/or 80 g/ha, which were obtained by the experimental procedure mentioned above.

AVEFA = experiment: as above; type: in vivo, Avena fatua; details: Dosage 320 g/ha; rated visually about 3 weeks after treatment; 100% = plants have died, 0% = like control plants
Protocol: as §1

ECHCG [2] = experiment: as above; type: in vivo, Echinochloa crus-galli; details: Dosage 320 g/ha; rated visually about 3 weeks after treatment; 100% = plants have died, 0% = like control plants
Protocol: as §1

LOLRI [3] = experiment: as above; type: in vivo, Lolium rigidum; details: Dosage 320 g/ha; rated visually about 3 weeks after treatment; 100% = plants have died, 0% = like control plants
Protocol: as §1

SETVI [4] = experiment: as above; type: in vivo, Setaria viridis; details: Dosage 320 g/ha; rated visually about 3 weeks after treatment; 100% = plants have died, 0% = like control plants
Protocol: as §1

ABUTH = experiment: as above; type: in vivo, Abutilon theophrasti; details: dosage 320 g/ha, visual rating about 3 weeks after treatment
Protocol: as §1

AMARE [5] = experiment: as above; type: in vivo, Amaranthus retroflexus; details: visual rating about 3 weeks after treatment
Protocol: as §1

MATIN [6] = experiment: as above; type: in vivo, Matricaria inodora; details: dosage 320 g/ha, visual rating about 3 weeks after treatment
Protocol: as §1

PHBPU = experiment: as above; type: in vivo, Pharbitis purpurea; details: dosage 320 g/ha, visual rating about 3 weeks after treatment
Protocol: as §1

POLCO = experiment: as above; type: in vivo, Polygonum convolvulus; details: dosage 320 g/ha, visual rating about 3 weeks after treatment
Protocol: as §1

VERPE [7] = experiment: as above; type: in vivo, Veronica persica; details: visual rating about 3 weeks after treatment
Protocol: as §1

ECHCG [8] = experiment: Herbicidal pre-emergence action 2a (greenhouse pots, visual scoring); type: in vivo, Echinochloa crus-galli; details: dosage 320 g/ha, visual scoring after about 3 weeks
From the text: (§2) [table] a) Seeds of monocotyledonous and dicotyledonous weed plants and crop plants are placed in plastic or organic plant pots and covered with soil. The compounds of the invention, formulated in the form of wettable powders (WP) or as emulsion concentrates (EC), are then applied onto the surface of the covering soil as aqueous suspension or emulsion with addition of 0.5% additive at a water application rate of 600 1/ha (converted). After the treatment, the pots are placed in a greenhouse and kept under good growth conditions for the trial plants. After about 3 weeks, the effect of the preparations is scored visually in comparison with untreated controls as percentages. For example, 100% activity=the plants have died, 0% activity=like control plants. Tables B1 to B15 below show the effects of selected compounds of the general formula (I) according to Tables 1 and 2 on various harmful plants and an application rate corresponding to 320 g/ha and/or 80 g/ha, which were obtained by the experimental procedure mentioned above.

LOLRI [9] = experiment: as above; type: in vivo, Lolium rigidum; details: dosage 320 g/ha, visual scoring after about 3 weeks vs untreated controls
From the text: as §2

MATIN [10] = experiment: as above; type: in vivo, Matricaria inodora; details: dosage 320 g/ha, visual scoring after about 3 weeks vs untreated controls
From the text: as §2

VIOTR [11] = experiment: Herbicidal post-emergence action 1a (greenhouse pots, visual rating); type: in vivo, Viola tricolor; details: visual rating about 3 weeks after treatment
Protocol: as §1

POAAN [12] = experiment: Herbicidal post-emergence action 1b (twin sowing, 1280 g/ha); type: in vivo, Poa annua; details: dosage 1280 g/ha, visual rating about 3 weeks after treatment
Protocol: (§3) [table] b) Seeds of mono- and dicotyledonous weed plants are placed in plastic pots in sandy loam soil (twin sowing with one species each of mono- or dicotyledonous weed plants per pot), covered with soil and cultivated in a greenhouse under controlled growth conditions. 2 to 3 weeks after sowing, the test plants are treated at the one-leaf stage. The compounds of the invention, formulated in the form of wettable powders (WP) or as emulsion concentrates (EC), are applied to the green parts of the plants as aqueous suspension or emulsion with addition of 0.5% additive at a water application rate equivalent to 600 litres per hectare. After the test plants have been kept in the greenhouse under optimum growth conditions for about 3 weeks, the activity of the preparations is rated visually in comparison to untreated controls. For example, 100% activity=the plants have died, 0% activity=like control plants. Tables A16 to A21 below show the effects of selected compounds of the general formula (I) according to Tables 1 and 2 on various harmful plants and at an application rate corresponding to 1280 g/ha, which were obtained by the experimental procedure mentioned above.

MATIN [13] = experiment: as above; type: in vivo, Matricaria inodora; details: dosage 1280 g/ha, visual rating about 3 weeks after treatment
Protocol: as §3

STEME [14] = experiment: as above; type: in vivo, Stellaria media; details: dosage 1280 g/ha, visual rating about 3 weeks after treatment
Protocol: as §3

ALOMY [15] = experiment: Herbicidal pre-emergence action 2a (greenhouse pots, visual scoring); type: in vivo, Alopecurus myosuroides; details: dosage 320 g/ha, visual scoring after about 3 weeks
From the text: as §2

DIGSA [16] = experiment: as above; type: in vivo, Digitaria sanguinalis; details: dosage 320 g/ha, visual scoring after about 3 weeks
From the text: as §2

SETVI [17] = experiment: as above; type: in vivo, Setaria viridis; details: dosage 320 g/ha, visual scoring after about 3 weeks vs untreated controls
From the text: as §2

AMARE [18] = experiment: as above; type: in vivo, Amaranthus retroflexus; details: dosage 320 g/ha, visual scoring after about 3 weeks vs untreated controls
From the text: as §2

VIOTR [19] = experiment: as above; type: in vivo, Viola tricolor; details: dosage 320 g/ha, visual scoring after about 3 weeks vs untreated controls
From the text: as §2

VERPE [20] = experiment: as above; type: in vivo, Veronica persica; details: dosage 320 g/ha, visual scoring after about 3 weeks vs untreated controls
From the text: as §2

POAAN [21] = experiment: Herbicidal pre-emergence action 2b (doubly sown, 1280 g/ha); type: in vivo, Poa annua; details: doubly sown pots, dosage 1280 g/ha, visual scoring after about 3 weeks
From the text: (§4) [table] b) Seeds of mono- and dicotyledonous weed plants are placed in plastic pots in sandy loam soil (doubly sown with one species each of mono- or dicotyledonous weed plants per pot) and covered with soil. The compounds of the invention, formulated in the form of wettable powders (WP) or as emulsion concentrates (EC), are then applied onto the surface of the covering soil as aqueous suspension or emulsion with addition of 0.5% additive at a water application rate equivalent to 600 litres per hectare. After the treatment, the pots are placed in a greenhouse and kept under good growth conditions for the trial plants. After about 3 weeks, the effect of the preparations is scored visually in comparison with untreated controls as percentages. For example, 100% activity=the plants have died, 0% activity=like control plants. Tables B16 to B21 below show the effects of selected compounds of the general formula (I) according to Tables 1 and 2 on various harmful plants and at an application rate corresponding to 1280 g/ha, which were obtained by the experimental procedure mentioned above.

ECHCG [22] = experiment: as above; type: in vivo, Echinochloa crus-galli; details: doubly sown pots, dosage 1280 g/ha, visual scoring after about 3 weeks
From the text: as §4

AMARE [23] = experiment: as above; type: in vivo, Amaranthus retroflexus; details: doubly sown pots, dosage 1280 g/ha, visual scoring after about 3 weeks
From the text: as §4

MATIN [24] = experiment: as above; type: in vivo, Matricaria inodora; details: doubly sown pots, dosage 1280 g/ha, visual scoring after about 3 weeks
From the text: as §4

STEME [25] = experiment: as above; type: in vivo, Stellaria media; details: doubly sown pots, dosage 1280 g/ha, visual scoring after about 3 weeks
From the text: as §4

DIGSA [26] = experiment: Herbicidal post-emergence action 1b (twin sowing, 1280 g/ha); type: in vivo, Digitaria sanguinalis; details: dosage 1280 g/ha, visual rating about 3 weeks after treatment
Protocol: as §3

DIGSA [27] = experiment: Herbicidal pre-emergence action 2b (doubly sown, 1280 g/ha); type: in vivo, Digitaria sanguinalis; details: doubly sown pots, dosage 1280 g/ha, visual scoring after about 3 weeks
From the text: as §4

SMILES: CCOC(=O)COc1nn(-c2cnccn2)c(-c2cncc(F)c2)c1F [Example I-94]
- Post-emergence action against ALOMY in % (ALOMY [1]): 80%
- Post-emergence action against AVEFA in % (AVEFA): 80%
- Post-emergence action against ECHCG in % (ECHCG [2]): 90%
- Post-emergence action against LOLRI in % (LOLRI [3]): 90%
- Post-emergence action against SETVI in % (SETVI [4]): 90%
- Post-emergence action against ABUTH in % (ABUTH): 90%
- Post-emergence action against AMARE in % (AMARE [5]; dosage 320 g/ha): 80%
- Post-emergence action against MATIN in % (MATIN [6]): 80%
- Post-emergence action against PHBPU in % (PHBPU): 100%
- Post-emergence action against POLCO in % (POLCO): 80%
- Post-emergence action against VERPE in % (VERPE [7]; dosage 80 g/ha): 90%
- Post-emergence action against VERPE in % (VERPE [7]; dosage 320 g/ha): 90%
- Pre-emergence action against ECHCG in % (ECHCG [8]): 100%
- Pre-emergence action against LOLRI in % (LOLRI [9]): 90%
- Pre-emergence action against MATIN in % (MATIN [10]): 90%

SMILES: C[C@@H](Oc1nn(-c2cnccn2)c(-c2cncc(F)c2)c1Cl)C(=O)O [Example 1-97]
- Pre-emergence action against ECHCG in % (ECHCG [8]): 100%

SMILES: COC(=O)[C@H](C)Oc1nn(-c2cnccn2)c(-c2cccc(F)c2)c1Br [Example I-21]
- Post-emergence action against ALOMY in % (ALOMY [1]): 90%
- Post-emergence action against AVEFA in % (AVEFA): 80%
- Post-emergence action against LOLRI in % (LOLRI [3]): 90%
- Post-emergence action against AMARE in % (AMARE [5]; dosage 80 g/ha): 80%
- Post-emergence action against AMARE in % (AMARE [5]; dosage 320 g/ha): 90%
- Post-emergence action against PHBPU in % (PHBPU): 80%
- Post-emergence action against VIOTR in % (VIOTR [11]; dosage 80 g/ha): 80%
- Post-emergence action against VIOTR in % (VIOTR [11]; dosage 320 g/ha): 90%
- Post-emergence action against VERPE in % (VERPE [7]; dosage 320 g/ha): 80%
- Post-emergence action at 1280 g/ha against POAAN in % (POAAN [12]): 100%
- Post-emergence action at 1280 g/ha against MATIN in % (MATIN [13]): 90%
- Post-emergence action at 1280 g/ha against STEME in % (STEME [14]): 100%
- Pre-emergence action against ALOMY in % (ALOMY [15]): 80%
- Pre-emergence action against DIGSA in % (DIGSA [16]): 90%
- Pre-emergence action against LOLRI in % (LOLRI [9]): 90%
- Pre-emergence action against SETVI in % (SETVI [17]): 90%
- Pre-emergence action against AMARE in % (AMARE [18]): 100%
- Pre-emergence action against MATIN in % (MATIN [10]): 80%
- Pre-emergence action against VIOTR in % (VIOTR [19]): 100%
- Pre-emergence action against VERPE in % (VERPE [20]): 90%
- Pre-emergence action at 1280 g/ha against POAAN in % (POAAN [21]): 100%
- Pre-emergence action at 1280 g/ha against ECHCG in % (ECHCG [22]): 100%
- Pre-emergence action at 1280 g/ha against AMARE in % (AMARE [23]): 100%
- Pre-emergence action at 1280 g/ha against MATIN in % (MATIN [24]): 100%
- Pre-emergence action at 1280 g/ha against STEME in % (STEME [25]): 100%

SMILES: COC(=O)[C@@H](C)Oc1nn(-c2cnccn2)c(-c2ccnc(F)c2)c1C#N [Example I-35]
- Post-emergence action at 1280 g/ha against POAAN in % (POAAN [12]): 100%
- Post-emergence action at 1280 g/ha against DIGSA in % (DIGSA [26]): 90%
- Pre-emergence action at 1280 g/ha against POAAN in % (POAAN [21]): 100%
- Pre-emergence action at 1280 g/ha against DIGSA in % (DIGSA [27]): 90%
- Pre-emergence action at 1280 g/ha against AMARE in % (AMARE [23]): 90%
- Pre-emergence action at 1280 g/ha against STEME in % (STEME [25]): 100%
